Test results as given in ChEMBL document CHEMBL1201862, “PubChem BioAssay data set” (2004).
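Cells were grown in 96-well plates and exposed to each compound for 48 hours at five concentrations; endpoints were interpolated linearly between bracketing concentrations, or set to the highest concentration if not reached. GI50: concentration for 50% inhibition of growth.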 Activity calls are given as the source filed them. Cut-off read from the data, not from the text of the source: active = GI50 up to about 1.1 µM and inactive = higher.

Assays:
Experiment in all cases: NCI tumour cell line growth inhibition, 48 h
[1] = system: NCI-H226
[2] = system: MOLT-4
[3] = system: MDA-MB-231
[4] = system: T47D
[5] = system: NCI-H23
[6] = system: UO-31
[7] = system: COLO 205
[8] = system: CCRF-CEM
[9] = system: OVCAR-5
[10] = system: RPMI-8226
[11] = system: U-251
[12] = system: ACHN
[13] = system: NCI-H460
[14] = system: SR
[15] = system: PC-3
[16] = system: UACC-62
[17] = system: LOX IMVI
[18] = system: HOP-62
[19] = system: SF-539
[20] = system: OVCAR-3

Row | Compound | GI50 [1] | GI50 [2] | GI50 [3] | GI50 [4] | GI50 [5] | GI50 [6] | GI50 [7] | GI50 [8] | GI50 [9] | GI50 [10] | GI50 [11] | GI50 [12] | GI50 [13] | GI50 [14] | GI50 [15] | GI50 [16] | GI50 [17] | GI50 [18] | GI50 [19] | GI50 [20]
1 | COc1cc(C2c3cc4c(cc3OC(N3CCOCC3)C2C)OCO4)cc(OC)c1OC(C)=O (centres undefined) | 17.7 µM (inactive) | 13 µM (inactive) | 18 µM (inactive) | 17.4 µM (inactive) | 31.3 µM (inactive) | 28.4 µM (inactive) | 19.3 µM (inactive) | 11.7 µM (inactive) | 49.1 µM (inactive) | 26.3 µM (inactive) | 14.3 µM (inactive) | 26.6 µM (inactive) | 7.69 µM (inactive) | 6.25 µM (inactive) | 13.5 µM (inactive) | 5.53 µM (inactive) | 23.6 µM (inactive) | 12.4 µM (inactive) | 13.3 µM (inactive) | 8.07 µM (inactive)
2 | Cc1cn(CCCCCCOC(=O)NC(CCCNC(N)=O)C(=O)O)c(=O)[nH]c1=O (centres undefined) | > 100 µM (inactive) | > 100 µM (inactive) | > 100 µM (inactive) | > 100 µM (inactive) | > 100 µM (inactive) | > 100 µM (inactive) | > 100 µM (inactive) | > 100 µM (inactive) | > 100 µM (inactive) | > 100 µM (inactive) | > 100 µM (inactive) | > 100 µM (inactive) | > 100 µM (inactive) | > 100 µM (inactive) | > 100 µM (inactive) | > 100 µM (inactive) | > 100 µM (inactive) | > 100 µM (inactive) | > 100 µM (inactive) | > 100 µM (inactive)
3 | Cc1c([N+](=O)[O-])ccc2c(NCCCN(C)C)ccnc12 | 30.4 µM (inactive) | > 100 µM (inactive) | 23 µM (inactive) | 25.4 µM (inactive) | 19 µM (inactive) | 13.7 µM (inactive) | 12.2 µM (inactive) | > 100 µM (inactive) | 29.6 µM (inactive) | 67.6 µM (inactive) | 27.4 µM (inactive) | 30.8 µM (inactive) | 16.3 µM (inactive) | 29.2 µM (inactive) | 16.4 µM (inactive) | 20.7 µM (inactive) | 15.7 µM (inactive) | 31.1 µM (inactive) | 16.8 µM (inactive) | 21 µM (inactive)
4 | CC(NC(=O)N(C)C)NC(=O)N(C)C | > 10 µM (inactive) | > 10 µM (inactive) | > 10 µM (inactive) | > 10 µM (inactive) | > 10 µM (inactive) | > 10 µM (inactive) | > 10 µM (inactive) | > 10 µM (inactive) |  | > 10 µM (inactive) | > 10 µM (inactive) | > 10 µM (inactive) | > 10 µM (inactive) | > 10 µM (inactive) | > 10 µM (inactive) | > 10 µM (inactive) | > 10 µM (inactive) | > 10 µM (inactive) | > 10 µM (inactive) | > 10 µM (inactive)
5 | COc1ccc(C(=C(I)c2ccccc2)c2ccc(OC)cc2)cc1 | > 100 µM (inactive) | > 100 µM (inactive) | > 100 µM (inactive) | 19.1 µM (inactive) | > 100 µM (inactive) | > 100 µM (inactive) | > 100 µM (inactive) | > 100 µM (inactive) | > 100 µM (inactive) | > 100 µM (inactive) | > 100 µM (inactive) | > 100 µM (inactive) | > 100 µM (inactive) | > 100 µM (inactive) | > 100 µM (inactive) | > 100 µM (inactive) | > 100 µM (inactive) | > 100 µM (inactive) | > 100 µM (inactive) | > 100 µM (inactive)
6 | OCCO[P+]1(OCCO)n2c3ccc2C(c2ccccc2)=C2C=CC(=N2)C(c2ccccc2)=c2ccc(n21)=C(c1ccccc1)C1=NC(=C3c2ccccc2)C=C1 | 0.0579 µM (active) | 0.0545 µM (active) | 0.042 µM (active) | 0.0251 µM (active) | 0.0327 µM (active) | 1.14 µM (inactive) | 0.013 µM (active) | 0.0158 µM (active) | 0.102 µM (active) | < 0.01 µM (active) | 0.0152 µM (active) | 0.251 µM (active) | 0.0378 µM (active) | < 0.0106 µM (active) | 0.0299 µM (active) | 0.0303 µM (active) | 0.022 µM (active) | 0.0708 µM (active) | 0.0335 µM (active) | 0.0218 µM (active)
7 | CC(C)(C)c1ccc(O)c(Br)c1 | > 100 µM (inactive) | > 100 µM (inactive) | > 100 µM (inactive) | 11.5 µM (inactive) | > 100 µM (inactive) | > 100 µM (inactive) | > 100 µM (inactive) | > 100 µM (inactive) | > 100 µM (inactive) | > 100 µM (inactive) | > 100 µM (inactive) | > 100 µM (inactive) | > 100 µM (inactive) | 37.3 µM (inactive) | > 100 µM (inactive) | 95.9 µM (inactive) | > 100 µM (inactive) | > 100 µM (inactive) | > 100 µM (inactive) | > 100 µM (inactive)
8 | O=C(CCBr)N1CCN(C(=O)CCBr)CC1 [PIPOBROMAN] | 84.9 µM (inactive) | 13.4 µM (inactive) | 113 µM (inactive) | 106 µM (inactive) | 56.4 µM (inactive) | 120 µM (inactive) | 92.3 µM (inactive) | 15.1 µM (inactive) | 103 µM (inactive) | 98.4 µM (inactive) | 55 µM (inactive) | 29 µM (inactive) | 11.9 µM (inactive) | 8.04 µM (inactive) | 113 µM (inactive) | 18 µM (inactive) | 48.3 µM (inactive) | 60.3 µM (inactive) | 62.5 µM (inactive) | 96.6 µM (inactive)
9 | COC(=O)/C=C1/OC(c2ccc(OC)cc2)=C(Cl)C1=O | 21.9 µM (inactive) | 2.96 µM (inactive) | 12.3 µM (inactive) | 15.3 µM (inactive) | 17.6 µM (inactive) | 21 µM (inactive) | 9.91 µM (inactive) | 4.78 µM (inactive) | 17.1 µM (inactive) | 3.95 µM (inactive) | 9.1 µM (inactive) | 17.3 µM (inactive) | 18.4 µM (inactive) | 1.61 µM (inactive) | 15.2 µM (inactive) | 17.4 µM (inactive) | 7.94 µM (inactive) | 20.6 µM (inactive) | 19.1 µM (inactive) | 13.3 µM (inactive)
10 | C=CCOC(=O)Cn1cc(C)c(=O)[nH]c1=O | > 100 µM (inactive) | > 100 µM (inactive) | > 100 µM (inactive) | > 100 µM (inactive) | > 100 µM (inactive) | > 100 µM (inactive) | > 100 µM (inactive) | > 100 µM (inactive) |  | > 100 µM (inactive) | > 100 µM (inactive) | > 100 µM (inactive) | > 100 µM (inactive) | > 100 µM (inactive) | > 100 µM (inactive) | > 100 µM (inactive) | > 100 µM (inactive) | > 100 µM (inactive) | > 100 µM (inactive) | 
11 | CC[C@@]1(O)C(=O)OCc2c1cc1n(c2=O)Cc2c-1nc1ccc(N)cc1c2CC[Si](C)(C)C | < 0.01 µM (active) | < 0.01 µM (active) | < 0.0363 µM (active) | < 0.01 µM (active) | < 0.01 µM (active) | < 0.01 µM (active) | < 0.0164 µM (active) | < 0.01 µM (active) | < 0.0223 µM (active) | < 0.01 µM (active) | < 0.01 µM (active) | < 0.01 µM (active) | < 0.01 µM (active) | < 0.01 µM (active) | < 0.0229 µM (active) | < 0.01 µM (active) | < 0.01 µM (active) | < 0.01 µM (active) | < 0.01 µM (active) | < 0.0188 µM (active)
12 | CCOc1ccc(NC(=O)C(=O)Nn2c(N)nnc2N)cc1 | > 100 µM (inactive) | > 100 µM (inactive) | > 100 µM (inactive) | > 100 µM (inactive) | > 100 µM (inactive) | > 100 µM (inactive) |  | > 100 µM (inactive) | > 100 µM (inactive) | > 100 µM (inactive) | > 100 µM (inactive) | > 100 µM (inactive) | > 100 µM (inactive) | > 100 µM (inactive) | > 100 µM (inactive) | > 100 µM (inactive) | > 100 µM (inactive) | > 100 µM (inactive) | > 100 µM (inactive) | > 100 µM (inactive)
13 | COc1cc2c(c(OC)c1OC)-c1ccc(SC)c(=O)cc1[C@@H](OC(=O)c1ccncc1)CC2 | < 0.01 µM (active) | < 0.01 µM (active) | < 0.01 µM (active) | > 61.7 µM (inactive) | < 0.01 µM (active) | < 0.01 µM (active) | < 0.01 µM (active) | < 0.01 µM (active) | < 0.01 µM (active) | < 0.01 µM (active) | < 0.01 µM (active) | < 0.01 µM (active) | < 0.01 µM (active) | < 0.0145 µM (active) | < 0.01 µM (active) | < 0.01 µM (active) | < 0.01 µM (active) |  | < 0.01 µM (active) | < 0.01 µM (active)
14 | CCC1=C(CC2NCCc3cc(OC)c(OC)cc32)CC2c3ccccc3CCN2C1 (centres undefined) | 19 µM (inactive) | 15.3 µM (inactive) | 16.8 µM (inactive) | 20.7 µM (inactive) |  | 15 µM (inactive) | 10.2 µM (inactive) | 10.4 µM (inactive) | 12.4 µM (inactive) | 13.8 µM (inactive) | 13.7 µM (inactive) | 31.5 µM (inactive) | 12.6 µM (inactive) | 10.1 µM (inactive) | 16.2 µM (inactive) | 15.5 µM (inactive) | 13.5 µM (inactive) | 21.7 µM (inactive) | 9.55 µM (inactive) | 33.4 µM (inactive)
